Patent publication US8129371B2, “Thienopyrimidine and pyrazolopyrimidine compounds and their use as mTOR kinase and PI3 kinase inhibitors” (Wyeth LLC, priority 2007, dated 2012)
pIC50: −log10 of the molar value. Read-outs that look alike come from different tables or passages of the source.

Experiments:
PI3K [1] = target: T1, PI3K (Homo sapiens, UniProt P42336); assay: Fluorescence polarization assay for PI3K; assay type: biochemical; settings: read-out: PI3 Kinase α IC50
T1 construct: PI3 Kinase α IC50; other: PI3 Kinase α; other: PI3 Kinase α isoform, fluorescence polarization
Procedure, shortened: (§1)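 Fluorescence-polarization competition readout: after 30–60 min of PIP2/ATP turnover in 1% DMSO, a stop mix with GST-GRP (70 nM) and red probe (10 nM) was added.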

PI3K [2] = target: T2, PI3K (Homo sapiens, UniProt P48736); assay: Fluorescence polarization assay for PI3K; assay type: biochemical; settings: read-out: PI3 Kinase γ IC50
T2 construct: PI3 Kinase γ IC50; other: PI3 Kinase γ; other: PI3 Kinase γ isoform, fluorescence polarization
Procedure, shortened: as §1

breast line MDA468 = assay: In vitro cell culture growth assay (MTS), MDA468; assay type: cell-based; settings: Homo sapiens, 72 h, MDA468 cells, three days after drug treatment
Procedure, shortened: (§2)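 Viable cell density is assessed three days after inhibitor addition via MTS conversion, normalised to vehicle-treated cells.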

Human mTOR (FLAG-TOR) = target: T3, Human mTOR (FLAG-TOR) (Homo sapiens, UniProt P42345); assay: Human mTOR kinase assay with purified enzyme, DELFIA format; assay type: biochemical
T3 construct: FLAG
Procedure, shortened: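 DELFIA readout: Eu-anti-P(T389)-S6K antibody (40 ng/mL, 1 h) on captured His6-S6K from the stopped reaction. Kinase step used purified FLAG-tagged human mTOR with test compound in HEPES (pH 7.4)/MnCl2/DTT buffer, 2 h at room temperature (linear 1–6 h), terminated by EDTA/EGTA.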

prostate line LNCap = assay: In vitro cell culture growth assay (MTS), LNCap; assay type: cell-based; settings: Homo sapiens, LNCaP, 72 h, LNCap cells, three days after drug treatment
Procedure, shortened: as §2

[3] = PI3 Kinase α isoform, fluorescence polarization
[4] = PI3 Kinase γ isoform, fluorescence polarization
[5] = purified human mTOR enzyme, DELFIA format

T1 sequence (P42336 whole entry, canonical isoform): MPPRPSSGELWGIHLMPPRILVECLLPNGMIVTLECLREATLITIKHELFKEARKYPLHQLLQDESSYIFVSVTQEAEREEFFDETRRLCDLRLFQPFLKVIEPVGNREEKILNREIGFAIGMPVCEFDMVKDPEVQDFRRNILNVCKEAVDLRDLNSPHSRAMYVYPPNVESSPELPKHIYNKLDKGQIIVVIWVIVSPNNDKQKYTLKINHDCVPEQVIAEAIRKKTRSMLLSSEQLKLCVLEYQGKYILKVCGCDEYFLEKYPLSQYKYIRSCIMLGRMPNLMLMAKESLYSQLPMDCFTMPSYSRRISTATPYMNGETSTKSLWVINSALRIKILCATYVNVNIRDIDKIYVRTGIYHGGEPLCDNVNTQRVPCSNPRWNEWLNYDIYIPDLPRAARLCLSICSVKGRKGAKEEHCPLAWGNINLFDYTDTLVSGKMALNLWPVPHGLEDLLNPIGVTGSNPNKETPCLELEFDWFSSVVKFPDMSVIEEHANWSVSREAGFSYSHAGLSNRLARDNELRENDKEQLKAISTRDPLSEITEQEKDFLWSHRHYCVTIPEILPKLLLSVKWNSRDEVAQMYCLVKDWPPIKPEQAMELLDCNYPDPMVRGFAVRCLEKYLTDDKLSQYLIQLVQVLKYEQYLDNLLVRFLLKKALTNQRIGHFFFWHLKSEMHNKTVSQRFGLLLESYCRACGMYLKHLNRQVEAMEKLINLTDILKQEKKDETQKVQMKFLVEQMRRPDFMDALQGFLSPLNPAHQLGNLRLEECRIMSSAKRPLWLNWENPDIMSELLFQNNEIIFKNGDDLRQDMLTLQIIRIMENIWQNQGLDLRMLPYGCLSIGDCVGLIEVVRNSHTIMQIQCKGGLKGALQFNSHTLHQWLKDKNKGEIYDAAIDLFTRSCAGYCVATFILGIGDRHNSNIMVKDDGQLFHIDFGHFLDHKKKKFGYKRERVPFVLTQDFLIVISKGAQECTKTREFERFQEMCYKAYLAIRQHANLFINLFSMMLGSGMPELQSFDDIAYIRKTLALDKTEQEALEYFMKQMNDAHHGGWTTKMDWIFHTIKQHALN
T2 sequence (P48736 whole entry, canonical isoform): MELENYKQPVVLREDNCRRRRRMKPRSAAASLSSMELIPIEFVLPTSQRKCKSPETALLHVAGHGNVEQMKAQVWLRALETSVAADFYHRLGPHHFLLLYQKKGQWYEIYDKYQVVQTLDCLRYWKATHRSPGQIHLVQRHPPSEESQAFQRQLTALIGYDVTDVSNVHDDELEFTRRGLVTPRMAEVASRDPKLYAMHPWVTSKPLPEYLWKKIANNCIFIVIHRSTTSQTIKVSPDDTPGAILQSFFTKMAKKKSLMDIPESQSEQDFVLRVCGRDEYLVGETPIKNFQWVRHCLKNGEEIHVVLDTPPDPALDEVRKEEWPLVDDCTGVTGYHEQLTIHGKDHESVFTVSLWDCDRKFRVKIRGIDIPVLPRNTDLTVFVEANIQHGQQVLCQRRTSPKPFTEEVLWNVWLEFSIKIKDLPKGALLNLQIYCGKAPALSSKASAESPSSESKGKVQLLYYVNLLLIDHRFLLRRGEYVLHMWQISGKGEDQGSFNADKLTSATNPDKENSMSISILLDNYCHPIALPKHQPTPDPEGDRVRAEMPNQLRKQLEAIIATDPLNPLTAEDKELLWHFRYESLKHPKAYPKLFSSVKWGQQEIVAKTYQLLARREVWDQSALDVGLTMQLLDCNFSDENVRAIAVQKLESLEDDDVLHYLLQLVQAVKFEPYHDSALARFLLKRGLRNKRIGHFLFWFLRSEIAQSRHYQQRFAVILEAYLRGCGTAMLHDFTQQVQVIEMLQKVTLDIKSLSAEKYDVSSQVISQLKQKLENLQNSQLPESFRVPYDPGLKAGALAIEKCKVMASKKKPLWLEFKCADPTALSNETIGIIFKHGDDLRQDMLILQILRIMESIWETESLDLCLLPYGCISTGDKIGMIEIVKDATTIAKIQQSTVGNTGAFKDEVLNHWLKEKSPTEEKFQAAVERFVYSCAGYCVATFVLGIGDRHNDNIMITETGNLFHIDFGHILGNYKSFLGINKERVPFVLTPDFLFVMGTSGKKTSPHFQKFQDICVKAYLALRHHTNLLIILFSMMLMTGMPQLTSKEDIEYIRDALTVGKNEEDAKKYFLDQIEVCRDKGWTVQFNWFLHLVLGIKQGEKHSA

CCn1ncc2c(N3CC4CCC(C3)O4)nc(-c3ccc(NC(=O)NCCN(C)C)cc3)nc21 [Example 175, 1-[2-(dimethylamino)ethyl]-3-{4-[1-ethyl-4-(8-oxa-3-azabicyclo[3.2.1]oct-3-yl)-1H-pyrazolo[3,4-d]pyrimidin-6-yl]phenyl}urea]
pIC50 (PI3K [1]; PI3 Kinase α): 6.08 | pIC50 (PI3K [2]; PI3 Kinase γ): 6.18 | pIC50 (breast line MDA468): 5.90 | pIC50 (Human mTOR (FLAG-TOR)): 7.28 | pIC50 (prostate line LNCap): 6.46

COC1CCC(n2ncc3c(N4CC5CCC(C4)O5)nc(-c4ccc(NC(=O)Nc5ccc(CO)cc5)cc4)nc32)CC1 (stereo not shown) [Example 308, 1-[4-(hydroxymethyl)phenyl]-3-{4-[1-(4-methoxycyclohexyl)-4-(8-oxa-3-azabicyclo[3.2.1]oct-3-yl)-1H-pyrazolo[3,4-d]pyrimidin-6-yl]phenyl}urea]
pIC50 (PI3K [1]; [3]): 7.10 | pIC50 (PI3K [2]; [4]): 5.57 | pIC50 (breast line MDA468): > 9.00 | pIC50 (Human mTOR (FLAG-TOR); [5]): 10.10 | pIC50 (prostate line LNCap): > 9.00

COC(=O)N1CCC(n2ncc3c(N4C5CCC4COC5)nc(-c4ccc(NC(=O)Nc5ccc(N6CCN(C)CC6)cc5)cc4)nc32)CC1 [Example 363, methyl 4-{6-[4-({[4-(4-methylpiperazin-1-yl)phenyl]carbamoyl}amino)phenyl]-4-(3-oxa-8-azabicyclo[3.2.1]oct-8-yl)-1H-pyrazolo[3,4-d]pyrimidin-1-yl}piperidine-1-carboxylate]
pIC50 (PI3K [1]; [3]): 5.80 | pIC50 (PI3K [2]; [4]): 5.49 | pIC50 (breast line MDA468): 9.00 | pIC50 (Human mTOR (FLAG-TOR); [5]): 9.26 | pIC50 (prostate line LNCap): > 9.00

Oc1ccc(Nc2nc(N3CC4CCC(C3)O4)c3sccc3n2)cc1 [Example 422, 4-{[4-(8-oxa-3-azabicyclo[3.2.1]oct-3-yl)thieno[3,2-d]pyrimidin-2-yl]amino}phenol]
pIC50 (PI3K [1]; [3]): 5.35 | pIC50 (PI3K [2]; [4]): < 5.00 | pIC50 (breast line MDA468): 4.51 | pIC50 (Human mTOR (FLAG-TOR); [5]): 6.57 | pIC50 (prostate line LNCap): 5.14

O=C(Nc1ccc(CCO)cc1)Nc1ccc(-c2nc(N3CC4CCC(C3)O4)c3cnn(CC(F)(F)F)c3n2)cc1 [Example 260, 1-[4-(2-hydroxyethyl)phenyl]-3-{4-[4-(8-oxa-3-azabicyclo[3.2.1]oct-3-yl)-1-(2,2,2-trifluoroethyl)-1H-pyrazolo[3,4-d]pyrimidin-6-yl]phenyl}urea]
pIC50 (PI3K [1]; PI3 Kinase α): 7.01 | pIC50 (PI3K [2]; PI3 Kinase γ): 6.36 | pIC50 (breast line MDA468): > 9.00 | pIC50 (Human mTOR (FLAG-TOR)): 9.95 | pIC50 (prostate line LNCap): > 9.00

O=C(Nc1ccc(-c2nc(N3CC4CCC(C3)O4)c3cnn(C4CCC5(CCCO5)CC4)c3n2)cc1)OCCO (single isomer, unassigned) [Example 315, 2-hydroxyethyl (4-{4-(8-oxa-3-azabicyclo[3.2.1]oct-3-yl)-1-[(5r,8r)-1-oxaspiro[4.5]dec-8-yl]-1H-pyrazolo[3,4-d]pyrimidin-6-yl}phenyl)carbamate]
pIC50 (PI3K [1]; [3]): 5.25 | pIC50 (PI3K [2]; [4]): 5.69 | pIC50 (breast line MDA468): 6.66 | pIC50 (Human mTOR (FLAG-TOR); [5]): 9.10 | pIC50 (prostate line LNCap): 8.00

CCn1ncc2c(N3CC4CCC(C3)O4)nc(-c3ccc(NC(=O)N[C@H]4CC[C@@H](N)CC4)cc3)nc21 (relative stereo) [Example 229, 1-(cis-4-aminocyclohexyl)-3-{4-[1-ethyl-4-(8-oxa-3-azabicyclo[3.2.1]oct-3-yl)-1H-pyrazolo[3,4-d]pyrimidin-6-yl]phenyl}urea]
pIC50 (PI3K [1]; PI3 Kinase α): 5.55 | pIC50 (PI3K [2]; PI3 Kinase γ): < 5.00 | pIC50 (breast line MDA468): 5.40 | pIC50 (Human mTOR (FLAG-TOR)): 6.61 | pIC50 (prostate line LNCap): 5.31

CN1CCN(C2CCC(n3ncc4c(N5CC6CCC(C5)O6)nc(-c5ccc(NC(=O)OCCO)cc5)nc43)CC2)CC1 (stereo not shown) [Example 369, 2-hydroxyethyl (4-{1-[4-(4-methylpiperazin-1-yl)cyclohexyl]-4-(8-oxa-3-azabicyclo[3.2.1]oct-3-yl)-1H-pyrazolo[3,4-d]pyrimidin-6-yl}phenyl)carbamate]
pIC50 (PI3K [1]; [3]): 5.50 | pIC50 (PI3K [2]; [4]): 4.93 | pIC50 (breast line MDA468): 6.12 | pIC50 (Human mTOR (FLAG-TOR); [5]): 8.80 | pIC50 (prostate line LNCap): 6.66

CO[C@H]1CC[C@@H](n2ncc3c(N4CC5CCC(C4)O5)nc(-c4ccc(NC(=O)NC5CC5)cc4)nc32)CC1 (relative stereo) [Example 398, 1-cyclopropyl-3-{4-[1-(cis-4-methoxycyclohexyl)-4-(8-oxa-3-azabicyclo[3.2.1]oct-3-yl)-1H-pyrazolo[3,4-d]pyrimidin-6-yl]phenyl}urea]
pIC50 (PI3K [1]; [3]): 5.94 | pIC50 (PI3K [2]; [4]): 5.25 | pIC50 (breast line MDA468): 7.70 | pIC50 (Human mTOR (FLAG-TOR); [5]): 9.28 | pIC50 (prostate line LNCap): 9.00

CNC(=O)Nc1ccc(-c2nc(N3CC4CCC(C3)O4)c3cnn(CCC#N)c3n2)cc1 [Example 214, 1-{4-[1-(2-cyanoethyl)-4-(8-oxa-3-azabicyclo[3.2.1]oct-3-yl)-1H-pyrazolo[3,4-d]pyrimidin-6-yl]phenyl}-3-methylurea]
pIC50 (PI3K [1]; PI3 Kinase α): 6.14 | pIC50 (PI3K [2]; PI3 Kinase γ): < 5.00 | pIC50 (breast line MDA468): 6.24 | pIC50 (Human mTOR (FLAG-TOR)): 8.82 | pIC50 (prostate line LNCap): 6.68

CCn1ncc2c(N3CC4CCC(C3)O4)nc(-c3cccc(O)c3)nc21 [Example 75, 3-[1-ethyl-4-(8-oxa-3-azabicyclo[3.2.1]oct-3-yl)-1H-pyrazolo[3,4-d]pyrimidin-6-yl]phenol]
pIC50 (PI3K [1]; PI3 Kinase α): 5.98 | pIC50 (PI3K [2]; PI3 Kinase γ): < 5.00 | pIC50 (breast line MDA468): 5.89 | pIC50 (Human mTOR (FLAG-TOR)): 7.57 | pIC50 (prostate line LNCap): 6.46

O=C(Nc1ccc(-c2nc(N3CC4CCC(C3)O4)c3sccc3n2)cc1)Nc1cccnc1 [Example 412, 1-{4-[4-(8-oxa-3-azabicyclo[3.2.1]oct-3-yl)thieno[3,2-d]pyrimidin-2-yl]phenyl}-3-pyridin-3-ylurea]
pIC50 (PI3K [1]; [3]): 6.92 | pIC50 (PI3K [2]; [4]): 5.63 | pIC50 (breast line MDA468): 7.14 | pIC50 (Human mTOR (FLAG-TOR); [5]): 9.55 | pIC50 (prostate line LNCap): 7.57

O=C(Nc1ccc(-c2nc(N3C[C@@H]4C[C@H]3CO4)c3cnn(CC(F)(F)F)c3n2)cc1)Nc1cccnc1 [Example 293, 1-(4-{4-[(1S,4S)-2-oxa-5-azabicyclo[2.2.1]hept-5-yl]-1-(2,2,2-trifluoroethyl)-1H-pyrazolo[3,4-d]pyrimidin-6-yl}phenyl)-3-pyridin-3-ylurea]
pIC50 (PI3K [1]; PI3 Kinase α): 6.22 | pIC50 (PI3K [2]; PI3 Kinase γ): < 5.00 | pIC50 (breast line MDA468): 7.30 | pIC50 (Human mTOR (FLAG-TOR)): 8.90 | pIC50 (prostate line LNCap): 7.77

CNC(=O)Nc1ccc(-c2nc(N3C[C@H]4C[C@@H]3CO4)c3cnn(CC(F)(F)F)c3n2)cc1 [Example 341, 1-methyl-3-(4-{4-[(1R,4R)-2-oxa-5-azabicyclo[2.2.1]hept-5-yl]-1-(2,2,2-trifluoroethyl)-1H-pyrazolo[3,4-d]pyrimidin-6-yl}phenyl)urea]
pIC50 (PI3K [1]; [3]): 5.33 | pIC50 (PI3K [2]; [4]): < 5.00 | pIC50 (breast line MDA468): 5.30 | pIC50 (Human mTOR (FLAG-TOR); [5]): 7.04 | pIC50 (prostate line LNCap): 5.60

CCNC(=O)Nc1ccc(-c2nc(N3CC4CCC(C3)O4)c3cnn(C4CCC5(CC4)OCCO5)c3n2)cc1 [Example 123, 1-{4-[1-(1,4-dioxaspiro[4.5]dec-8-yl)-4-(8-oxa-3-azabicyclo[3.2.1]oct-3-yl)-1H-pyrazolo[3,4-d]pyrimidin-6-yl]phenyl}-3-ethylurea]
pIC50 (PI3K [1]; PI3 Kinase α): 5.34 | pIC50 (PI3K [2]; PI3 Kinase γ): < 5.00 | pIC50 (breast line MDA468): 8.05 | pIC50 (Human mTOR (FLAG-TOR)): 9.59 | pIC50 (prostate line LNCap): 9.00

CCn1ncc2c(N3CC4CCC(C3)O4)nc(-c3ccc(NC(=O)Nc4ccc(CO)cc4)cc3)nc21 [Example 182, 1-{4-[1-ethyl-4-(8-oxa-3-azabicyclo[3.2.1]oct-3-yl)-1H-pyrazolo[3,4-d]pyrimidin-6-yl]phenyl}-3-[4-(hydroxymethyl)phenyl]urea]
pIC50 (PI3K [1]; PI3 Kinase α): 7.40 | pIC50 (PI3K [2]; PI3 Kinase γ): 5.90 | pIC50 (breast line MDA468): > 9.00 | pIC50 (Human mTOR (FLAG-TOR)): 9.92 | pIC50 (prostate line LNCap): > 9.00

O=C(Nc1ccncc1)Nc1ccc(-c2nc(N3CC4CCC(C3)O4)c3cnn(CCO)c3n2)cc1 [Example 200, 1-{4-[1-(2-hydroxyethyl)-4-(8-oxa-3-azabicyclo[3.2.1]oct-3-yl)-1H-pyrazolo[3,4-d]pyrimidin-6-yl]phenyl}-3-pyridin-4-ylurea]
pIC50 (PI3K [1]; PI3 Kinase α): 7.04 | pIC50 (PI3K [2]; PI3 Kinase γ): 5.66 | pIC50 (breast line MDA468): 7.30 | pIC50 (Human mTOR (FLAG-TOR)): 9.41 | pIC50 (prostate line LNCap): 7.30

O=C(Nc1ccccc1)Nc1ccc(-c2nc(N3CC4CCC(C3)O4)c3cnn(C4CCC5(CC4)OCCO5)c3n2)cc1 [Example 127, 1-{4-[1-(1,4-dioxaspiro[4.5]dec-8-yl)-4-(8-oxa-3-azabicyclo[3.2.1]oct-3-yl)-1H-pyrazolo[3,4-d]pyrimidin-6-yl]phenyl}-3-phenylurea]
pIC50 (PI3K [1]; PI3 Kinase α): 6.45 | pIC50 (PI3K [2]; PI3 Kinase γ): < 5.00 | pIC50 (breast line MDA468): 7.74 | pIC50 (Human mTOR (FLAG-TOR)): 9.81 | pIC50 (prostate line LNCap): 8.40

CCn1ncc2c(N3CC4CCC(C3)O4)nc(-c3ccc(NC(=O)Nc4ccc(N5CCCC5)cc4)cc3)nc21 [Example 280, 1-{4-[1-ethyl-4-(8-oxa-3-azabicyclo[3.2.1]oct-3-yl)-1H-pyrazolo[3,4-d]pyrimidin-6-yl]phenyl}-3-(4-pyrrolidin-1-ylphenyl)urea]
pIC50 (PI3K [1]; PI3 Kinase α): 5.84 | pIC50 (PI3K [2]; PI3 Kinase γ): 5.09 | pIC50 (breast line MDA468): 6.92 | pIC50 (Human mTOR (FLAG-TOR)): 8.22 | pIC50 (prostate line LNCap): 7.26

O=C(Nc1ccc(-c2nc(N3C[C@H]4C[C@@H]3CO4)c3cnn(CC(F)(F)F)c3n2)cc1)OCCO [Example 343, 2-hydroxyethyl (4-{4-[(1R,4R)-2-oxa-5-azabicyclo[2.2.1]hept-5-yl]-1-(2,2,2-trifluoroethyl)-1H-pyrazolo[3,4-d]pyrimidin-6-yl}phenyl)carbamate]
pIC50 (PI3K [1]; [3]): 5.29 | pIC50 (PI3K [2]; [4]): < 5.00 | pIC50 (breast line MDA468): 5.82 | pIC50 (Human mTOR (FLAG-TOR); [5]): 7.09 | pIC50 (prostate line LNCap): 5.92
